Reference: paper PMC10163056, “Vortioxetine hydrobromide inhibits the growth of gastric cancer cells in vivo and in vitro by targeting JAK2 and SRC” (Oncogenesis, 2023)
Structures can show the parent of a compound that is named as a salt.

Columns and labels:
SRC = SRC (Homo sapiens, UniProt P12931); assay: Kinase-Lumi luminescent kinase assay; also in vitro kinase assay with recombinant SRC and STAT3, bead pull-down of recombinant protein, CETSA in AGS and HGC27 cells; assay type: biochemical
JAK2 = JAK2 (Homo sapiens, UniProt O60674); assay: Kinase-Lumi luminescent kinase assay; also in vitro kinase assay with recombinant JAK2 and STAT3, bead pull-down of recombinant protein, CETSA in AGS and HGC27 cells; assay type: biochemical
Sequence of JAK2 (O60674 whole entry): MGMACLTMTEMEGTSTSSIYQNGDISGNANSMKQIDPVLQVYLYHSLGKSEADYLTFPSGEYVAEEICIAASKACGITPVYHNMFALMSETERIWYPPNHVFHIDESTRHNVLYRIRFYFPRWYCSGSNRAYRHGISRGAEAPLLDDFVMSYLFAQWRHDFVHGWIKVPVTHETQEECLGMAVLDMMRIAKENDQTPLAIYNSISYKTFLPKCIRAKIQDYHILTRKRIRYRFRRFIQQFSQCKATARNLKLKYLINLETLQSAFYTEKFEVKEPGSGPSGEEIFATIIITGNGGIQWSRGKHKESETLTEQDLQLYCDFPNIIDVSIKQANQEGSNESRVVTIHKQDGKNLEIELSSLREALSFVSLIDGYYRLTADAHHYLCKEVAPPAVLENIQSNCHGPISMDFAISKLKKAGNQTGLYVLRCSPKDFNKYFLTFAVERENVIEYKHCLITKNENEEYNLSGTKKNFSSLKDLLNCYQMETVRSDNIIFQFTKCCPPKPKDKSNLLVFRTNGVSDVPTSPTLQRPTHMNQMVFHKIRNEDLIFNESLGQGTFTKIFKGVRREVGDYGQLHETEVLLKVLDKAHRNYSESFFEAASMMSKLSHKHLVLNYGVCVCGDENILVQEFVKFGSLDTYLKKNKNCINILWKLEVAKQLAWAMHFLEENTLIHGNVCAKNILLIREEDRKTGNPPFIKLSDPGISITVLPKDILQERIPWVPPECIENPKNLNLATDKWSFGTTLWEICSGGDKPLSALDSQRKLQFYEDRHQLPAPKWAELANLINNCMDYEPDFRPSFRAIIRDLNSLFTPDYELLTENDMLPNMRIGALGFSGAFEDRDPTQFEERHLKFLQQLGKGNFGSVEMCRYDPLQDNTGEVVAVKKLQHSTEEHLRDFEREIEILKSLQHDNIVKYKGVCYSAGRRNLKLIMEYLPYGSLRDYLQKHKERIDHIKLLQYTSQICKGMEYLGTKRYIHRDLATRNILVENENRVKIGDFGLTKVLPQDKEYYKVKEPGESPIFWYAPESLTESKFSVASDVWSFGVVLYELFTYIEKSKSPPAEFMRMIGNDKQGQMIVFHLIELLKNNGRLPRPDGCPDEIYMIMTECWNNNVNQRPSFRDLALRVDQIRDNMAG

Sequence of SRC (P12931 2-536): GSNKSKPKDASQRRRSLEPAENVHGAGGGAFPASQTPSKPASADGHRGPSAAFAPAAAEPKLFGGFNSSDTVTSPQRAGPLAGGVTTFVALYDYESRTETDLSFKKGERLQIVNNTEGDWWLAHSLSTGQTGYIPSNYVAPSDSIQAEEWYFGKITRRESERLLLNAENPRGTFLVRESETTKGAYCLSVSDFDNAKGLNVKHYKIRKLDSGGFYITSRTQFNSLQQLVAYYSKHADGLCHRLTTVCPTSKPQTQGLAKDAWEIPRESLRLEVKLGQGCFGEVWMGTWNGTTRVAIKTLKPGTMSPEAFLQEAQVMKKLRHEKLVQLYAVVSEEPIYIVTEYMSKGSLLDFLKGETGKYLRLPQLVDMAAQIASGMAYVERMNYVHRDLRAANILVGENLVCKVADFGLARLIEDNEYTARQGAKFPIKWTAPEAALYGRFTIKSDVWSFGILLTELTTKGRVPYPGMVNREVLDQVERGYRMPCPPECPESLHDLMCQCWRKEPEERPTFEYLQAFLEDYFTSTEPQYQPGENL

**Q.** What does the source list for `Cc1ccc(Sc2ccccc2N2CCNCC2)c(C)c1` [vortioxetine hydrobromide]?
**A.** IC50 (SRC): 6.5 µM; IC50 (JAK2): 8.53 µM
